In ChEMBL document CHEMBL5303765, “Data for DCP probe BAY-7081” (2023):

Assays:
[1] = target: Calcium/calmodulin-dependent protein kinase type 1G (Homo sapiens) (UniProt Q96NX5); test: CAMK1G SGC Tm panel (DSF); conditions: for ΔTm: Compound concentration 10.0 uM
[2] = target: Histamine H3 receptor (Homo sapiens) (UniProt Q9Y5N1); conditions: Compound concentration 10.0 uM
[3] = target: Ephrin type-A receptor 5 (Homo sapiens) (UniProt P54756); test: EPHA5 SGC Tm panel (DSF); conditions: for ΔTm: Compound concentration 10.0 uM
[4] = target: D(1B) dopamine receptor (Homo sapiens) (UniProt P21918); conditions: Compound concentration 10.0 uM
Chain of D(1B) dopamine receptor (Homo sapiens) (P21918 whole entry): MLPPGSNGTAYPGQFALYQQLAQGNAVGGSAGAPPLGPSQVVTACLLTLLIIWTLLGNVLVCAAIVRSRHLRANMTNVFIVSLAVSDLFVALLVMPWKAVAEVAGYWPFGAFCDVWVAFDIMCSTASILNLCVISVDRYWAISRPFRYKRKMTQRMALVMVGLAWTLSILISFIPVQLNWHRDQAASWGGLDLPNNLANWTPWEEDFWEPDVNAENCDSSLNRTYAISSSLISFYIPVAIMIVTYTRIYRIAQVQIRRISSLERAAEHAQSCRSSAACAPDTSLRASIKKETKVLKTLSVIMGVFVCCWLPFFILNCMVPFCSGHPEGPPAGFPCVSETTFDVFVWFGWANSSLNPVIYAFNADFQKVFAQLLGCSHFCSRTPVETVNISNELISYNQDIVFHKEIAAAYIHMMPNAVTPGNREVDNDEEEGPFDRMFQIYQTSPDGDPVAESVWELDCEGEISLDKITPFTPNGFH

[5] = target: Tyrosine-protein kinase ABL1 (Homo sapiens) (UniProt P00519); test: ABL1 SGC Tm panel (DSF); conditions: for ΔTm: Compound concentration 10.0 uM
Chain of Tyrosine-protein kinase ABL1 (Homo sapiens) (P00519 whole entry): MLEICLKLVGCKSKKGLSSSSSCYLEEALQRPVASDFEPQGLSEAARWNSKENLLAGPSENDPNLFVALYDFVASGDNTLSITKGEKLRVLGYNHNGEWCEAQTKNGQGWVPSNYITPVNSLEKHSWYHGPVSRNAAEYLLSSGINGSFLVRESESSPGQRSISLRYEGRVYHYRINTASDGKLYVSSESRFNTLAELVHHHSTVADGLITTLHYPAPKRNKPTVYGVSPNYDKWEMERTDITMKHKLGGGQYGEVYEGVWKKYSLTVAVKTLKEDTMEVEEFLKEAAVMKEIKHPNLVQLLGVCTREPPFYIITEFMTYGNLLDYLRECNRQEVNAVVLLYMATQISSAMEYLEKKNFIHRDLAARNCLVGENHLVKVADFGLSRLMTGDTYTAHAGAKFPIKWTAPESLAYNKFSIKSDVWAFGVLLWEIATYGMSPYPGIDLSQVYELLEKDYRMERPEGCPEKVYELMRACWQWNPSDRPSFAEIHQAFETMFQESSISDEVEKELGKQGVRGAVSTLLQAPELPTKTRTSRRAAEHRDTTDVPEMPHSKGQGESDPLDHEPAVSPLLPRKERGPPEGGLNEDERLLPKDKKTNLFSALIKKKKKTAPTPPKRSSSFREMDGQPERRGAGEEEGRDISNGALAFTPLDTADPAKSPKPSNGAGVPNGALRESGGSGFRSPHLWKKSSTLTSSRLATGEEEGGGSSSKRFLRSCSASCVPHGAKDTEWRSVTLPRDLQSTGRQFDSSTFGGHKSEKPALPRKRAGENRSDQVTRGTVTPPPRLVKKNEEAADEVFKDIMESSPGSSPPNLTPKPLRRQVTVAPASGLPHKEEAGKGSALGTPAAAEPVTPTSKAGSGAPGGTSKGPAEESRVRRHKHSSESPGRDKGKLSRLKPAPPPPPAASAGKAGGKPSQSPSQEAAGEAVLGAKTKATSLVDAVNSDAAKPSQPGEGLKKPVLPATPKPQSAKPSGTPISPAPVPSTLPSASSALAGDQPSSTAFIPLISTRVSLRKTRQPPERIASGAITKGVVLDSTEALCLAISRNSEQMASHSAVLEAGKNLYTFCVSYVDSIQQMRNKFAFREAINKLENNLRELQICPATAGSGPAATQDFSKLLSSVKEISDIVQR

[6] = target: Homeodomain-interacting protein kinase 2 (Homo sapiens) (UniProt Q9H2X6); test: HIPK2 SGC Tm panel (DSF); conditions: for ΔTm: Compound concentration 10.0 uM
Chain of Homeodomain-interacting protein kinase 2 (Homo sapiens) (Q9H2X6 whole entry, looked up): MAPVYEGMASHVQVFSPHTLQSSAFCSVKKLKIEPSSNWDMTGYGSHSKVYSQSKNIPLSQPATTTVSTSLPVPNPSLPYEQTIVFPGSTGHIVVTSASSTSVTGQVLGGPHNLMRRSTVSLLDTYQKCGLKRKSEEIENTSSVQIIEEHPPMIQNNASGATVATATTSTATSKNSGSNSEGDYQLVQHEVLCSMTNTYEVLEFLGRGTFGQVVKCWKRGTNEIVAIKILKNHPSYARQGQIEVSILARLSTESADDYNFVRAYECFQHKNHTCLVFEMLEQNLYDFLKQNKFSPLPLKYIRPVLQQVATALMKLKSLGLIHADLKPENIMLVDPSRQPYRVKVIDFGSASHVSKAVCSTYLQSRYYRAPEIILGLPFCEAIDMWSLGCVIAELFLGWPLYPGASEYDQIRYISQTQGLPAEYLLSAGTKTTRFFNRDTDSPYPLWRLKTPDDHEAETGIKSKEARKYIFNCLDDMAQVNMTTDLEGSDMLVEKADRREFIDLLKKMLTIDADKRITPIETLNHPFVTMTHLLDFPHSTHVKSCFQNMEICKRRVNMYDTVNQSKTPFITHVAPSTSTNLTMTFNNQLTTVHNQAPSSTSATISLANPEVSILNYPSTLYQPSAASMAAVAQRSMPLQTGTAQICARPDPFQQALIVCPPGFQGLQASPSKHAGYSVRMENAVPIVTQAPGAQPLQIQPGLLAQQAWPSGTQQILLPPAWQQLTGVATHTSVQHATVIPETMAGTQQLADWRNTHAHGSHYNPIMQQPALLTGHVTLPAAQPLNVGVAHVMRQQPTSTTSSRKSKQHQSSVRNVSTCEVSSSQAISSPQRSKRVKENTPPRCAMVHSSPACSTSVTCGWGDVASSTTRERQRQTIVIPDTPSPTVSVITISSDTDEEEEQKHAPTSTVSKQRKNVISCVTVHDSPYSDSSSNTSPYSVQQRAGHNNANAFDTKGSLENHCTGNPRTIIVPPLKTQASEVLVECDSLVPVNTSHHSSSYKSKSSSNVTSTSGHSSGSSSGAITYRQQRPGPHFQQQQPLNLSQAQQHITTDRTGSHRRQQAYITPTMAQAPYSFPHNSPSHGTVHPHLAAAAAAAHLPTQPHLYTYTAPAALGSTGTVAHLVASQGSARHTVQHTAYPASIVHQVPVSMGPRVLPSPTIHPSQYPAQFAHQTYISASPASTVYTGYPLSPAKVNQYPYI

[7] = target: T1, Mitogen-activated protein kinase kinase kinase 5 (Homo sapiens) (UniProt Q99683); test: MAP3K5 SGC Tm panel (DSF); conditions: for ΔTm: Compound concentration 10.0 uM
T1 sequence (whole entry): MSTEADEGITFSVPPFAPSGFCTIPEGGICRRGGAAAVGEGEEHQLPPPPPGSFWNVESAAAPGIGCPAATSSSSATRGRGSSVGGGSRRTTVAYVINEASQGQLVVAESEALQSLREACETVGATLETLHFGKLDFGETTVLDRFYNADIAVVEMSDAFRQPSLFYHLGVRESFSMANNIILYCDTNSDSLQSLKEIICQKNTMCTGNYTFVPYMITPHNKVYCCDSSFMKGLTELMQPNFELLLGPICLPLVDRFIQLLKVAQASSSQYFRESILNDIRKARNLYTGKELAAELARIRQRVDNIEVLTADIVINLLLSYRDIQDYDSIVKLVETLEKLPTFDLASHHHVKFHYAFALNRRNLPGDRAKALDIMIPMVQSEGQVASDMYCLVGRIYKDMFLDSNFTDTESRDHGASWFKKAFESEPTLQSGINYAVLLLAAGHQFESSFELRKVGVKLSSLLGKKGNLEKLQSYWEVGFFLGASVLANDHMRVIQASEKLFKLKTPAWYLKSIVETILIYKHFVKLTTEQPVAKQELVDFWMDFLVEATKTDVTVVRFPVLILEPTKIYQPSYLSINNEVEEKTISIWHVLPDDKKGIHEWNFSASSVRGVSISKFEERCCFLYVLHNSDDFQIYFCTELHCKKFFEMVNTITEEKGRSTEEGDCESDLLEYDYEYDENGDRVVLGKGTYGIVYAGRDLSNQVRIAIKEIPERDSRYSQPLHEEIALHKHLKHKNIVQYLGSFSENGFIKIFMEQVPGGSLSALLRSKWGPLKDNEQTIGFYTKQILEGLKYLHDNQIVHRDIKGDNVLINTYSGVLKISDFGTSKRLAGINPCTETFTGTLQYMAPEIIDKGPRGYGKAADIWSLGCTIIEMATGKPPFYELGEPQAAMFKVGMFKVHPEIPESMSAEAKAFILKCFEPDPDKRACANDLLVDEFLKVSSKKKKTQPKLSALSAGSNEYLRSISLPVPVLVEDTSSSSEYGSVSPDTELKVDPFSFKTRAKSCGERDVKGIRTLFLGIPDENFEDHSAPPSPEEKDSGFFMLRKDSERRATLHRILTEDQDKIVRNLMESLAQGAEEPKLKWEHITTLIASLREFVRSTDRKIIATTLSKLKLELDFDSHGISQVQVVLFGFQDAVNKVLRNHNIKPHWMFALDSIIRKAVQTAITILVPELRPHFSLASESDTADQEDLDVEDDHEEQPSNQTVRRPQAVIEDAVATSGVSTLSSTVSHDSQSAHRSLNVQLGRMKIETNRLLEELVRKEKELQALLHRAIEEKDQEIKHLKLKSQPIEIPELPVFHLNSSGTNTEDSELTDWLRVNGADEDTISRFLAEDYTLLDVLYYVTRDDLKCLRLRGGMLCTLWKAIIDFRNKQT

[8] = target: T2, Transcription intermediary factor 1-alpha (Homo sapiens) (UniProt O15164); test: TIF1 SGC Tm panel (DSF); conditions: for ΔTm: Compound concentration 10.0 uM
T2 sequence (whole entry): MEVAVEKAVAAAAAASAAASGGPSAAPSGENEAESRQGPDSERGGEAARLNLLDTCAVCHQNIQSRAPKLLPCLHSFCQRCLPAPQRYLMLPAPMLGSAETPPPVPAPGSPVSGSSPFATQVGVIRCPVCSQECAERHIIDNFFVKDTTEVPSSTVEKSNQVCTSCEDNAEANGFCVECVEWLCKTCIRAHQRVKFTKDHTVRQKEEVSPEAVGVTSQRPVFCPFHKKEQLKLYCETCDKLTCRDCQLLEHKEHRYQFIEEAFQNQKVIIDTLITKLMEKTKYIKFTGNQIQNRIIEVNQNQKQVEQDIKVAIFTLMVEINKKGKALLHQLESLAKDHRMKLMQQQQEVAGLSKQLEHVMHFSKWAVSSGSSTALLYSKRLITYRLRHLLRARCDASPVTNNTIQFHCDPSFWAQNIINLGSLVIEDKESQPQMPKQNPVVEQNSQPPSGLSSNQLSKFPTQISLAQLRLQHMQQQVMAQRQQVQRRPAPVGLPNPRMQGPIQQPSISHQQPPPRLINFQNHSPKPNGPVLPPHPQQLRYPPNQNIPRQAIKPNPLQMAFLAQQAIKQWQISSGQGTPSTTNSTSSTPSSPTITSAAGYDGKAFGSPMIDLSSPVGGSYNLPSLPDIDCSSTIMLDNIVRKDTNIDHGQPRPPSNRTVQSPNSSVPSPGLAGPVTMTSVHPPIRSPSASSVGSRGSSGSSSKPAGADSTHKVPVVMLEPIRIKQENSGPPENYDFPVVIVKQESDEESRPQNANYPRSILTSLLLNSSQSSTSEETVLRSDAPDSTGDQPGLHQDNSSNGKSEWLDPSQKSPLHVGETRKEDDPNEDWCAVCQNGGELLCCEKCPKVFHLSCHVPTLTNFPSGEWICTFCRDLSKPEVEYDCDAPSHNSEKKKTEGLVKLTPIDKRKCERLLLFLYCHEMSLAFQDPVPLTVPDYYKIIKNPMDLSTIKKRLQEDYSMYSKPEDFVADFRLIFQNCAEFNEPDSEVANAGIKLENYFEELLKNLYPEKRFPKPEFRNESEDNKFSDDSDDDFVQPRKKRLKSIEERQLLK

[9] = target: Mitogen-activated protein kinase 10 (Homo sapiens) (UniProt P53779); test: MAPK10 SGC Tm panel (DSF); conditions: for ΔTm: Compound concentration 10.0 uM
Chain of Mitogen-activated protein kinase 10 (Homo sapiens) (P53779 whole entry): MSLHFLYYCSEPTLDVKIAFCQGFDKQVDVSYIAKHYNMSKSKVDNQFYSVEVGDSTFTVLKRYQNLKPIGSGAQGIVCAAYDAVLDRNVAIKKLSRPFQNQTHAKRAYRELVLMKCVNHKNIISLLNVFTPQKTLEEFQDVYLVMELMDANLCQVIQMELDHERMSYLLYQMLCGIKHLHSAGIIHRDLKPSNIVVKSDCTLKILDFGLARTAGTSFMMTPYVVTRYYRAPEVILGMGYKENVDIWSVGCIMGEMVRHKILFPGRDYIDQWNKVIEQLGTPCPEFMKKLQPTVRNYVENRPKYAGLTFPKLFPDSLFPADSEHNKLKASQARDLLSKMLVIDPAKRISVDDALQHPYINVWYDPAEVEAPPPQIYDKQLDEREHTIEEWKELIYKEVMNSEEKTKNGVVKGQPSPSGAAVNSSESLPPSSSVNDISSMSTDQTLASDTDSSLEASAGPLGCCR

[10] = target: Delta-type opioid receptor (Homo sapiens) (UniProt P41143); conditions: Compound concentration 10.0 uM
Chain of Delta-type opioid receptor (Homo sapiens) (P41143 whole entry): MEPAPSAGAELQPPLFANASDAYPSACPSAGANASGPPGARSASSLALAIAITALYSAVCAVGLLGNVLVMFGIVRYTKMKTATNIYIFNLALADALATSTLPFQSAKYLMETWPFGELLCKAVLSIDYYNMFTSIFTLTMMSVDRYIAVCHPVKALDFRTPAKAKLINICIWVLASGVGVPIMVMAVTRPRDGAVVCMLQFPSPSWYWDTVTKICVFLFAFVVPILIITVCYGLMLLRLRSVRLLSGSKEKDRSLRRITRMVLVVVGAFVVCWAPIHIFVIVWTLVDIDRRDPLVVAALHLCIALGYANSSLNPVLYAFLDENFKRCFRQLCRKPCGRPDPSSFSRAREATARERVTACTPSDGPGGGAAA

[11] = target: Serine/threonine-protein kinase 26 (Homo sapiens) (UniProt Q9P289); test: MST4 SGC Tm panel (DSF); conditions: for ΔTm: Compound concentration 10.0 uM
Chain of Serine/threonine-protein kinase 26 (Homo sapiens) (Q9P289 2-416 limits assumed): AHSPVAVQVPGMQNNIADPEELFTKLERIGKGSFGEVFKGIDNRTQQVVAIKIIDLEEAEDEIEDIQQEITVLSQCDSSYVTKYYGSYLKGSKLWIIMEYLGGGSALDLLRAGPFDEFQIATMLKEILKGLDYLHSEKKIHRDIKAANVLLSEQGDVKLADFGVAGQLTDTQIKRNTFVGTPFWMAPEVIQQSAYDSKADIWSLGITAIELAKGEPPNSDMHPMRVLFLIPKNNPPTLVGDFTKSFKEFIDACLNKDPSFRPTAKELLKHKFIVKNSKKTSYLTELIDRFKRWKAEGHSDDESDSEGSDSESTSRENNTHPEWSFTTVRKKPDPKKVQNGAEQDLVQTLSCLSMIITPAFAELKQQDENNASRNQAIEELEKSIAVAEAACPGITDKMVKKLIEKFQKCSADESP

Chain of Calcium/calmodulin-dependent protein kinase type 1G (Homo sapiens) (Q96NX5 whole entry): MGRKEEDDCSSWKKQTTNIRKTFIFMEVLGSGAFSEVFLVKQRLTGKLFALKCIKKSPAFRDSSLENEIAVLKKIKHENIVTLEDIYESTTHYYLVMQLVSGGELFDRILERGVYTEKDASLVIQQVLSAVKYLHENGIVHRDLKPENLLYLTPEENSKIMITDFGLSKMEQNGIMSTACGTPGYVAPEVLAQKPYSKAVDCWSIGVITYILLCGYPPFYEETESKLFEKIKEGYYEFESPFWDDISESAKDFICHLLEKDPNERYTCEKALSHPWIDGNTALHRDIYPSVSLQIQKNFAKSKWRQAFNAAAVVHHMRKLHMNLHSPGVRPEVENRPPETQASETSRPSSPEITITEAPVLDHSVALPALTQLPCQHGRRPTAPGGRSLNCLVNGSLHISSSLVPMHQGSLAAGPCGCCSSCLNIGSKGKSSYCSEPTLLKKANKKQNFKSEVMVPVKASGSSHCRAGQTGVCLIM
Chain of Histamine H3 receptor (Homo sapiens) (Q9Y5N1 whole entry): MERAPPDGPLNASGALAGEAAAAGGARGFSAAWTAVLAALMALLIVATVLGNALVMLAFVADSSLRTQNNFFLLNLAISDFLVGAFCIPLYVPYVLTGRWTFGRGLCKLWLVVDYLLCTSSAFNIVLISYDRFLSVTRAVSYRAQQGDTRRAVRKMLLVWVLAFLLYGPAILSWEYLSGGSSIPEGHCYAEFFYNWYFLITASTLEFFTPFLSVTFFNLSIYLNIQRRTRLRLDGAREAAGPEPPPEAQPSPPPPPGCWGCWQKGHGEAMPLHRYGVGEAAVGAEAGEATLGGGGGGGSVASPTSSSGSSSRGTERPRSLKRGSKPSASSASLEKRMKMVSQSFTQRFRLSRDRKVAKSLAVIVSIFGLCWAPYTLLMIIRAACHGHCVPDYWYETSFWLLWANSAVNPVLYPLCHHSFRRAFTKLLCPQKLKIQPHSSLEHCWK

Row | SMILES | delta Tm Staurosporine positive control [1] | ΔTm [1] | inhibition [2] [%] | delta Tm Staurosporine positive control [3] | ΔTm [3] | inhibition [4] [%] | delta Tm Staurosporine positive control [5] | ΔTm [5] | delta Tm Staurosporine positive control [6] | ΔTm [6] | delta Tm Staurosporine positive control [7] | ΔTm [7] | delta Tm Staurosporine positive control [8] | ΔTm [8] | delta Tm Staurosporine positive control [9] | ΔTm [9] | inhibition [10] [%] | delta Tm Staurosporine positive control [11] | ΔTm [11]
1 | CCC[C@H]1CNCc2c1[nH]c(=O)c(C#N)c2N1CCC2(CC1)CC2 | 11.2 | -0.348 | -0.66 | 8.04 | -0.544 | 2.11 | 8.44 | 0.111 | 4.23 | -0.31 | 17.7 | 0.00768 | 0.0394 | -0.211 | 6.75 | -0.509 | -9.99 | 6.5 | -1.58
2 | CCC[C@@H]1CNCc2c1[nH]c(=O)c(C#N)c2N1CCC2(CC1)CC2 | 11.2 | -0.416 | -1.01 | 8.04 | -0.589 | 4.19 | 8.44 | 0.0781 | 4.23 | -0.297 | 17.7 | -0.154 | 0.0394 | -0.244 | 6.75 | -0.405 | 3.91 | 6.5 | -1.81
